From US20090131431A1, “Pyrazolo[3,4-b]pyridine compounds, and their use as a PDE4 inhibitors” (priority 2005, published 2009)

What follows are molecules tested against T1, PDE4B (human recombinant) (Homo sapiens, UniProt Q07343) (assay: Inhibition of PDE4B activity: SPA and/or Fluorescence Polarisation (FP) assay). Details: one reading (n=1) or average of 2 or more readings, read-out: PDE4B pIC50 (±about 0.5) (converted).
T1 construct: made in house
Format: biochemical
How it was run: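 Human recombinant PDE4B activity measured by SPA with [3H]cAMP at about 10 nM, 1 h at ambient temperature, enzyme set for ≤20% substrate hydrolysis, or by IMAP FP with Fl-cAMP at about 40 nM, 40 min at ambient temperature under linear conditions. Inhibition curves fitted; values reported as pIC50.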

T1 sequence (Q07343 1-564 isoform Q07343-2): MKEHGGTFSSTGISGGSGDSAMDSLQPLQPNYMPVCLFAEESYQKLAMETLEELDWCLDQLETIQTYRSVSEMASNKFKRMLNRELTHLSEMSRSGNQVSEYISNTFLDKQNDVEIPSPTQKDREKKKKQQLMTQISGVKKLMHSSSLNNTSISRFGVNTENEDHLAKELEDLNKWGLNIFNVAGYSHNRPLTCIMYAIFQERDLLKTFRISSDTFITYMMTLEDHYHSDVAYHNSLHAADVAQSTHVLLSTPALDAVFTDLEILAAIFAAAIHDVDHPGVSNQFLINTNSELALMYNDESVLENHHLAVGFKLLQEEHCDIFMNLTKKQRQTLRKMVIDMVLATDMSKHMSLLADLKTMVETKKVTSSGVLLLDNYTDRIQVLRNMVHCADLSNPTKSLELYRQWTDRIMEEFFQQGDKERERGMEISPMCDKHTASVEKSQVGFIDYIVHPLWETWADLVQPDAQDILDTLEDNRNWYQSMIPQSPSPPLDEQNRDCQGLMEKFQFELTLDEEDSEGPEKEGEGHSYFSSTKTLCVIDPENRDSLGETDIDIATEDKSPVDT

`CCn1ncc2c(NC3CCOCC3)c(CNC(=O)c3cc(C)on3)c(C)nc21` [Example 225, N-{[1-ethyl-6-methyl-4-(tetrahydro-2H-pyran-4-ylamino)-1H-pyrazolo[3,4-b]pyridin-5-yl]methyl}-5-methyl-3-isoxazolecarboxamide] and `CCn1ncc2c(NC3CCOCC3)c(CNC(=O)c3ccn(C)n3)c(C)nc21` [Example 229, N-{[1-ethyl-6-methyl-4-(tetrahydro-2H-pyran-4-ylamino)-1H-pyrazolo[3,4-b]pyridin-5-yl]methyl}-1-methyl-1H-pyrazole-3-carboxamide] fall in the same range of IC50: 0.126 to 1 nM for the first, 0.126 to 1 nM for the second.

`CCc1nc2c(cnn2CC)c(NC2CCOCC2)c1CNC(=O)c1nc(C)oc1C(F)(F)F` [Example 155, N-{[1,6-diethyl-4-(tetrahydro-2H-pyran-4-ylamino)-1H-pyrazolo[3,4-b]pyridin-5-yl]methyl}-2-methyl-5-(trifluoromethyl)-1,3-oxazole-4-carboxamide] and `CCc1nc2c(cnn2CC)c(NC2CCOCC2)c1CNC(=O)c1coc(C)n1` [Example 310, N-{[1,6-diethyl-4-(tetrahydro-2H-pyran-4-ylamino)-1H-pyrazolo[3,4-b]pyridin-5-yl]methyl}-2-methyl-1,3-oxazole-4-carboxamide] fall in the same range of IC50: 0.126 to 1 nM for the first, 0.126 to 1 nM for the second.

`CCn1ncc2c(NC3CCOCC3)c(CNC(=O)c3ccc(N4CCCCC4)cc3)c(C)nc21` [Example 116, N-{[1-ethyl-6-methyl-4-(tetrahydro-2H-pyran-4-ylamino)-1H-pyrazolo[3,4-b]pyridin-5-yl]methyl}-4-(1-piperidinyl)benzamide] and `CCc1nc2c(cnn2CC)c(NC2CCOCC2)c1CNC(=O)c1ccc(N2CCOCC2)cc1` [Example 180, N-{[1,6-diethyl-4-(tetrahydro-2H-pyran-4-ylamino)-1H-pyrazolo[3,4-b]pyridin-5-yl]methyl}-4-(4-morpholinyl)benzamide] fall in the same range of IC50: 0.01 to 0.1 nM for the first, 0.01 to 0.1 nM for the second.

`CCn1ncc2c(NC3CCN(C(N)=O)CC3)c(CNC(=O)c3cccc(N4CCCC4=O)c3)c(C)nc21` [Example 267, 4-({1-ethyl-6-methyl-5-[({[3-(2-oxo-1-pyrrolidinyl)phenyl]carbonyl}amino)methyl]-1H-pyrazolo[3,4-b]pyridin-4-yl}amino)-1-piperidinecarboxamide] and `CCc1nc2c(cnn2CC)c(NC2CCN(C(N)=O)CC2)c1CNC(=O)c1cccc(N2CCCC2=O)c1` [Example 247, 4-({1,6-diethyl-5-[({[3-(2-oxo-1-pyrrolidinyl)phenyl]carbonyl}amino)methyl]-1H-pyrazolo[3,4-b]pyridin-4-yl}amino)-1-piperidinecarboxamide] fall in the same range of IC50: 0.01 to 0.1 nM for the first, 0.01 to 0.1 nM for the second.

Compared with `CCc1nc2c(cnn2CC)c(NC2CCOCC2)c1CNC(=O)c1ccc2c(c1)CCC2` [Example 176, N-{[1,6-diethyl-4-(tetrahydro-2H-pyran-4-ylamino)-1H-pyrazolo[3,4-b]pyridin-5-yl]methyl}-2,3-dihydro-1H-indene-5-carboxamide], `CCc1nc2c(cnn2CC)c(NC2CCOCC2)c1CNC(=O)c1ccc2c(c1)CCCC2` [Example 177, N-{[1,6-diethyl-4-(tetrahydro-2H-pyran-4-ylamino)-1H-pyrazolo[3,4-b]pyridin-5-yl]methyl}-5,6,7,8-tetrahydro-2-naphthalenecarboxamide] is higher in IC50: 0.01 to 0.1 nM for the first, 0.126 to 1 nM for the second.

Compared with `CCc1nc2c(cnn2CC)c(NC2CCOCC2)c1CNC(=O)c1ccc2c(c1)CCCS2(=O)=O` [Example 258, N-{[1,6-diethyl-4-(tetrahydro-2H-pyran-4-ylamino)-1H-pyrazolo[3,4-b]pyridin-5-yl]methyl}-3,4-dihydro-2H-1-benzothiopyran-6-carboxamide 1,1-dioxide], `CCc1nc2c(cnn2CC)c(NC2CCOCC2)c1CNC(=O)c1ccc2ccccc2c1` [Example 191, N-{[1,6-diethyl-4-(tetrahydro-2H-pyran-4-ylamino)-1H-pyrazolo[3,4-b]pyridin-5-yl]methyl}-2-naphthalenecarboxamide] is higher in IC50: 0.01 to 0.1 nM for the first, 0.126 to 1 nM for the second.

`CCn1ncc2c(NC3CCN(C(N)=O)CC3)c(CNC(=O)c3cccc4c3OCC4)c(C)nc21` [Example 270, 4-[(5-{[(2,3-dihydro-1-benzofuran-7-ylcarbonyl)amino]methyl}-1-ethyl-6-methyl-1H-pyrazolo[3,4-b]pyridin-4-yl)amino]-1-piperidinecarboxamide] and `CCn1ncc2c(NC3CCOCC3)c(CNC(=O)c3cccc4c3OCC4)c(C)nc21` [Example 220, N-{[1-ethyl-6-methyl-4-(tetrahydro-2H-pyran-4-ylamino)-1H-pyrazolo[3,4-b]pyridin-5-yl]methyl}-2,3-dihydro-1-benzofuran-7-carboxamide] fall in the same range of IC50: 0.01 to 0.1 nM for the first, 0.01 to 0.1 nM for the second.

`CCn1ncc2c(NC3CCN(C(N)=O)CC3)c(CNC(=O)c3ccc(C(C)(C)C)cc3O)c(C)nc21` [Example 272, 4-({5-[({(4-(1,1-dimethylethyl)-2-hydroxyphenyl]carbonyl}amino)methyl}-1-ethyl-6-methyl-1H-pyrazolo[3,4-b]pyridin-4-yl)amino}-1-piperidinecarboxamide] and `CCc1nc2c(cnn2CC)c(NC2CCN(C(N)=O)CC2)c1CNC(=O)c1ccc(C(C)(C)C)cc1` [Example 243, 4-({5-[({[4-(1-dimethylethyl)phenyl]carbonyl}amino)methyl]-1,6-diethyl-1H-pyrazolo[3,4-b]pyridin-4-yl}amino)-1-piperidinecarboxamide] fall in the same range of IC50: 0.01 to 0.1 nM for the first, 0.01 to 0.1 nM for the second.

`CCc1nc2c(cnn2CC)c(NC2CCN(C(N)=O)CC2)c1CNC(=O)c1ccco1` [Example 240, 4-[(1,6-diethyl-5-{[(2-furanylcarbonyl)amino]methyl}-1H-pyrazolo[3,4-b]pyridin-4-yl)amino]-1-piperidinecarboxamide] and `CCc1nc2c(cnn2CC)c(NC2CCN(C(N)=O)CC2)c1CNC(=O)c1ccc(N2CCCCC2)cc1` [Example 204, 4-({1,6-diethyl-5-[({[4-(1-piperidinyl)phenyl]carbonyl}amino)methyl]-1H-pyrazolo[3,4-b]pyridin-4-yl}amino)-1-piperidinecarboxamide] fall in the same range of IC50: 0.01 to 0.1 nM for the first, 0.01 to 0.1 nM for the second.

`CCc1nc2c(cnn2CC)c(NC2CCOCC2)c1CNC(=O)c1ccccc1` [Example 196, N-{[1,6-diethyl-4-(tetrahydro-2H-pyran-4-ylamino)-1H-pyrazolo[3,4-b]pyridin-5-y]methyl}benzamide] and `CCc1nc2c(cnn2CC)c(NC2CCOCC2)c1CNC(=O)Nc1ccccc1` [Example 203, N-{[1,6-diethyl-4-(tetrahydro-2H-pyran-4-ylamino)-1H-pyrazolo[3,4-b]pyridin-5-yl]methyl}-N′-phenylurea] fall in the same range of IC50: 0.126 to 1 nM for the first, 0.126 to 1 nM for the second.

`CCn1ncc2c(NC3CCOCC3)c(CNC(=O)c3cccc(N(C)C)c3)cnc21` [Example 120, 3-(dimethylamino)-N-{[1-ethyl-4-(tetrahydro-2H-pyran-4-ylamino)-1H-pyrazolo[3,4-b]pyridin-5-yl]methyl}benzamide] and `CCn1ncc2c(NC3CCOCC3)c(CNC(=O)c3ccc(-n4cccc4)nc3)c(C)nc21` [Example 214, N-{[1-ethyl-6-methyl-4-(tetrahydro-2H-pyran-4-ylamino)-1H-pyrazolo[3,4-b]pyridin-5-yl]methyl}-6-(1H-pyrrol-1-yl)-3-pyridinecarboxamide] fall in the same range of IC50: 0.126 to 1 nM for the first, 0.126 to 1 nM for the second.

`CCc1nc2c(cnn2CC)c(NC2CCOCC2)c1CNC(=O)c1cncs1` [Example 234, N-{[1,6-diethyl-4-(tetrahydro-2H-pyran-4-ylamino)-1H-pyrazolo[3,4-b]pyridin-5-yl]methyl}-1,3-thiazole-5-carboxamide] and `CCc1nc2c(cnn2CC)c(NC2CCOCC2)c1CNC(=O)c1ccc(C#N)nc1` [Example 325, 6-cyano-N-{[1,6-diethyl-4-(tetrahydro-2H-pyran-4-ylamino)-1H-pyrazolo[3,4-b]pyridin-5-yl]methyl}-3-pyridinecarboxamide] fall in the same range of IC50: 0.126 to 1 nM for the first, 0.126 to 1 nM for the second.

First: CCn1ncc2c(NC3CCOCC3)c(CNC(=O)c3ccccc3O)c(C)nc21 [Example 275, N-{[1-ethyl-6-methyl-4-(tetrahydro-2H-pyran-4-ylamino)-1H-pyrazolo[3,4-b]pyridin-5-yl]methyl}-2-hydroxybenzamide]
Second: CCn1ncc2c(NC3CCOCC3)c(CNC(=O)c3ccc(F)cc3F)c(C)nc21 [Example 312, N-{[1-ethyl-6-methyl-4-(tetrahydro-2H-pyran-4-ylamino)-1H-pyrazolo[3,4-b]pyridin-5-yl]methyl}-2,4-difluorobenzamide]
The IC50 of the first is lower: 0.01 to 0.1 nM for the first, 0.126 to 1 nM for the second.

First: CCc1nc2c(cnn2CC)c(NC2CCOCC2)c1CNC(=O)C1CCCO1 (stereo not shown) [Example 156, N-{[1,6-diethyl-4-(tetrahydro-2H-pyran-4-ylamino)-1H-pyrazolo[3,4-b]pyridin-5-yl]methyl}tetrahydro-2-furancarboxamide]
Second: CCc1nc2c(cnn2CC)c(NC2CCOCC2)c1CNC(=O)c1ccc(C(N)=O)cc1 [Example 253, N-{[1,6-diethyl-4-(tetrahydro-2H-pyran-4-ylamino)-1H-pyrazolo[3,4-b]pyridin-5-yl]methyl}-1,4-benzenedicarboxamide]
The IC50 of the first is higher: 0.126 to 1 nM for the first, 0.01 to 0.1 nM for the second.

`CCn1ncc2c(NC3CCOCC3)c(CNC(=O)c3ccc(C(C)(C)C)cc3)c(C)nc21` [Example 277, 4-(1,1-dimethylethyl)-N-{[1-ethyl-6-methyl-4-(tetrahydro-2H-pyran-4-ylamino)-1H-pyrazolo[3,4-b]pyridin-5-yl]methyl}benzamide] and `CCc1nc2c(cnn2CC)c(NC2CCOCC2)c1CNC(=O)c1ccc(C(=O)NC)cc1` [Example 255, N-{[1,6-diethyl-4-(tetrahydro-2H-pyran-4-ylamino)-1H-pyrazolo[3,4-b]pyridin-5-yl]methyl}-N′-methyl-1,4-benzenedicarboxamide] fall in the same range of IC50: 0.01 to 0.1 nM for the first, 0.01 to 0.1 nM for the second.

`CCc1nc2c(cnn2CC)c(NC2CCOCC2)c1CNC(=O)c1cc(S(=O)(=O)c2ccccc2)ccc1OC` [Example 179, N-{[1,6-diethyl-4-(tetrahydro-2H-pyran-4-ylamino)-1H-pyrazolo[3,4-b]pyridin-5-yl]methyl}-2-(methyloxy)-5-(phenylsulfonyl)benzamide] was tested, and the IC50 was 0.01 to 0.1 nM.
